Results: the supplement of paper PMC10307832

Columns and labels:
Experiment in all cases: relative viability (nuclei count vs DMSO), 5 days (fraction); higher = more cells survive
[1] = test system: Calu-6
Summary of the method: (§1)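 One day after seeding in 1536-well plates, lung cancer cell lines were dosed by pin tool. Dosing was either single-drug or a fixed anchor-drug dose plus five library-drug doses (not always all listed) in √10 steps. After 5 days, nuclei were stained in one fix-and-stain step and counted on 4× images, and relative viability is the nuclei count of treated wells over that of vehicle wells, given as the median of duplicate plates.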

[2] = test system: EKVX
Summary of the method: as §1

[3] = test system: NCI-H1299
Summary of the method: as §1

[4] = test system: EBC-1
Summary of the method: as §1

[5] = test system: ChaGo-K-1
Summary of the method: as §1

[6] = test system: NCI-H1703
Summary of the method: as §1

[7] = test system: NCI-H1666
Summary of the method: as §1

[8] = test system: LC-2-ad
Summary of the method: as §1

[9] = test system: A549
Summary of the method: as §1

[10] = test system: IA-LM
Summary of the method: as §1

[11] = test system: NCI-H1623
Summary of the method: as §1

## CCNC(=O)c1noc(-c2cc(C(C)C)c(O)cc2O)c1-c1ccc(CN2CCOCC2)cc1 [Luminespib] + COc1cc2c(Oc3ccc(NC(=O)C4(C(=O)Nc5ccc(F)cc5)CC4)cc3F)ccnc2cc1OCCCN1CCOCC1 [Foretinib] (partner 0.25 µM)
[1]; first compound 0.002 µM
  relative viability: 0.888
[1]; first compound 0.006325 µM
  relative viability: 0.889
[1]; first compound 0.02 µM
  relative viability: 1.03
[1]; first compound 0.06325 µM
  relative viability: 0.0858
[1]; first compound 0.2 µM
  relative viability: 0.086
[2]; first compound 0.002 µM
  relative viability: 0.75
[2]; first compound 0.006325 µM
  relative viability: 0.453
[2]; first compound 0.06325 µM
  relative viability: 0.815
[2]; first compound 0.2 µM
  relative viability: 0.108
[3]; first compound 0.002 µM
  relative viability: 1.08
[3]; first compound 0.006325 µM
  relative viability: 0.989
[3]; first compound 0.02 µM
  relative viability: 1.09
[3]; first compound 0.06325 µM
  relative viability: 1.07
[3]; first compound 0.2 µM
  relative viability: 0.191
[4]; first compound 0.002 µM
  relative viability: 0.0894
[4]; first compound 0.006325 µM
  relative viability: 0.116
[4]; first compound 0.02 µM
  relative viability: 0.113
[4]; first compound 0.06325 µM
  relative viability: 0.0992
[4]; first compound 0.2 µM
  relative viability: 0.104
[5]; first compound 0.002 µM
  relative viability: 0.889
[5]; first compound 0.006325 µM
  relative viability: 0.92
[5]; first compound 0.02 µM
  relative viability: 1.02
[5]; first compound 0.06325 µM
  relative viability: 0.37
[5]; first compound 0.2 µM
  relative viability: 0.299
[6]; first compound 0.002 µM
  relative viability: 0.332
[6]; first compound 0.006325 µM
  relative viability: 0.348
[6]; first compound 0.02 µM
  relative viability: 0.396
[6]; first compound 0.06325 µM
  relative viability: 0.21
[6]; first compound 0.2 µM
  relative viability: 0.222
[7]; first compound 0.002 µM
  relative viability: 0.988
[7]; first compound 0.006325 µM
  relative viability: 0.904
[7]; first compound 0.02 µM
  relative viability: 0.986
[7]; first compound 0.06325 µM
  relative viability: 0.94
[7]; first compound 0.2 µM
  relative viability: 0.967
[8]; first compound 0.002 µM
  relative viability: 1.02
[8]; first compound 0.006325 µM
  relative viability: 0.928
[8]; first compound 0.02 µM
  relative viability: 0.834
[8]; first compound 0.06325 µM
  relative viability: 0.321
[8]; first compound 0.2 µM
  relative viability: 0.25
[9]; first compound 0.002 µM
  relative viability: 1.04
[9]; first compound 0.006325 µM
  relative viability: 0.842
[9]; first compound 0.02 µM
  relative viability: 1.09
[9]; first compound 0.06325 µM
  relative viability: 0.138
[9]; first compound 0.2 µM
  relative viability: 0.0269
[10]; first compound 0.002 µM
  relative viability: 1.07
[10]; first compound 0.006325 µM
  relative viability: 1.13
[10]; first compound 0.02 µM
  relative viability: 1.23
[10]; first compound 0.06325 µM
  relative viability: 0.0645
[10]; first compound 0.2 µM
  relative viability: 0.0409
[11]; first compound 0.002 µM
  relative viability: 0.885
[11]; first compound 0.006325 µM
  relative viability: 0.783
[11]; first compound 0.02 µM
  relative viability: 0.67
[11]; first compound 0.06325 µM
  relative viability: 0.673
[11]; first compound 0.2 µM
  relative viability: 0.375

## Cc1cn(-c2cc(NC(=O)c3ccc(C)c(Nc4nccc(-c5cccnc5)n4)c3)cc(C(F)(F)F)c2)cn1 [Nilotinib] + N=C(N)NC(=N)NCCc1ccccc1 [Phenformin] (partner 250 µM)
[2]; first compound 0.001 µM
  relative viability: 0.231
[2]; first compound 0.003162 µM
  relative viability: 0.232
[2]; first compound 0.01 µM
  relative viability: 0.248
[2]; first compound 0.03162 µM
  relative viability: 0.214
[2]; first compound 0.1 µM
  relative viability: 0.236
[5]; first compound 0.001 µM
  relative viability: 0.469
[5]; first compound 0.003162 µM
  relative viability: 0.442
[5]; first compound 0.01 µM
  relative viability: 0.473
[5]; first compound 0.03162 µM
  relative viability: 0.394
[5]; first compound 0.1 µM
  relative viability: 0.315
[7]; first compound 0.001 µM
  relative viability: 0.605
[7]; first compound 0.003162 µM
  relative viability: 0.615
[7]; first compound 0.01 µM
  relative viability: 0.578
[7]; first compound 0.03162 µM
  relative viability: 0.545
[7]; first compound 0.1 µM
  relative viability: 0.652
[8]; first compound 0.001 µM
  relative viability: 0.647
[8]; first compound 0.003162 µM
  relative viability: 0.659
[8]; first compound 0.01 µM
  relative viability: 0.557
[8]; first compound 0.03162 µM
  relative viability: 0.609
[8]; first compound 0.1 µM
  relative viability: 0.562
[9]; first compound 0.001 µM
  relative viability: 0.147
[9]; first compound 0.003162 µM
  relative viability: 0.27
[9]; first compound 0.01 µM
  relative viability: 0.274
[9]; first compound 0.03162 µM
  relative viability: 0.172
[9]; first compound 0.1 µM
  relative viability: 0.14
[11]; first compound 0.001 µM
  relative viability: 0.578
[11]; first compound 0.003162 µM
  relative viability: 0.585
[11]; first compound 0.01 µM
  relative viability: 0.605
[11]; first compound 0.03162 µM
  relative viability: 0.566
[11]; first compound 0.1 µM
  relative viability: 0.601

## CN1CCN(CCOc2cc(OC3CCOCC3)c3c(Nc4c(Cl)ccc5c4OCO5)ncnc3c2)CC1 [Saracatinib] + CCNC(=O)c1noc(-c2cc(C(C)C)c(O)cc2O)c1-c1ccc(CN2CCOCC2)cc1 [Luminespib] (partner 0.01 µM)
[2]; first compound 0.02 µM
  relative viability: 0.812
[2]; first compound 0.6325 µM
  relative viability: 0.883
[2]; first compound 2 µM
  relative viability: 0.532
[5]; first compound 0.02 µM
  relative viability: 0.663
[5]; first compound 0.2 µM
  relative viability: 0.388
[5]; first compound 0.6325 µM
  relative viability: 0.7
[5]; first compound 2 µM
  relative viability: 0.555
[7]; first compound 0.02 µM
  relative viability: 1.01
[7]; first compound 0.2 µM
  relative viability: 1.09
[7]; first compound 0.6325 µM
  relative viability: 1.4
[7]; first compound 2 µM
  relative viability: 1.15
[8]; first compound 0.02 µM
  relative viability: 0.985
[8]; first compound 0.2 µM
  relative viability: 0.912
[8]; first compound 0.6325 µM
  relative viability: 1.1
[8]; first compound 2 µM
  relative viability: 0.949
[11]; first compound 0.02 µM
  relative viability: 0.527
[11]; first compound 0.2 µM
  relative viability: 0.383
[11]; first compound 0.6325 µM
  relative viability: 0.522
[11]; first compound 2 µM
  relative viability: 0.433

## Cc1cn(-c2cc(NC(=O)c3ccc(C)c(Nc4nccc(-c5cccnc5)n4)c3)cc(C(F)(F)F)c2)cn1 [Nilotinib] + Cc1nc(Nc2ncc(C(=O)Nc3c(C)cccc3Cl)s2)cc(N2CCN(CCO)CC2)n1 [Dasatinib] (partner 0.075 µM)
[2]; first compound 0.001 µM
  relative viability: 0.461
[2]; first compound 0.003162 µM
  relative viability: 0.477
[2]; first compound 0.01 µM
  relative viability: 0.554
[2]; first compound 0.03162 µM
  relative viability: 0.467
[2]; first compound 0.1 µM
  relative viability: 0.432
[5]; first compound 0.001 µM
  relative viability: 0.521
[5]; first compound 0.003162 µM
  relative viability: 0.598
[5]; first compound 0.01 µM
  relative viability: 0.634
[5]; first compound 0.03162 µM
  relative viability: 0.372
[5]; first compound 0.1 µM
  relative viability: 0.331
[7]; first compound 0.001 µM
  relative viability: 0.783
[7]; first compound 0.003162 µM
  relative viability: 0.886
[7]; first compound 0.01 µM
  relative viability: 0.797
[7]; first compound 0.03162 µM
  relative viability: 0.719
[7]; first compound 0.1 µM
  relative viability: 0.778
[8]; first compound 0.001 µM
  relative viability: 0.512
[8]; first compound 0.003162 µM
  relative viability: 0.701
[8]; first compound 0.01 µM
  relative viability: 0.574
[8]; first compound 0.03162 µM
  relative viability: 0.43
[8]; first compound 0.1 µM
  relative viability: 0.387
[11]; first compound 0.001 µM
  relative viability: 0.597
[11]; first compound 0.003162 µM
  relative viability: 0.531
[11]; first compound 0.01 µM
  relative viability: 0.601
[11]; first compound 0.03162 µM
  relative viability: 0.508
[11]; first compound 0.1 µM
  relative viability: 0.408

## Cc1csc(=NC2CCCCC2)n1/N=C/c1ccc(O)c(O)c1O [MIM1] + Cc1nc(Nc2ncc(C(=O)Nc3c(C)cccc3Cl)s2)cc(N2CCN(CCO)CC2)n1 [Dasatinib] (partner 0.075 µM)
[2]; first compound 0.2 µM
  relative viability: 0.591
[2]; first compound 2 µM
  relative viability: 0.558
[2]; first compound 6.325 µM
  relative viability: 0.514
[2]; first compound 20 µM
  relative viability: 0.391
[5]; first compound 0.2 µM
  relative viability: 0.594
[5]; first compound 0.6325 µM
  relative viability: 0.552
[5]; first compound 2 µM
  relative viability: 0.562
[5]; first compound 6.325 µM
  relative viability: 0.466
[5]; first compound 20 µM
  relative viability: 0.173
[7]; first compound 0.2 µM
  relative viability: 0.788
[7]; first compound 0.6325 µM
  relative viability: 0.852
[7]; first compound 2 µM
  relative viability: 0.711
[7]; first compound 6.325 µM
  relative viability: 0.528
[7]; first compound 20 µM
  relative viability: 0.41
[8]; first compound 0.2 µM
  relative viability: 0.834
[8]; first compound 0.6325 µM
  relative viability: 0.413
[8]; first compound 2 µM
  relative viability: 0.527
[8]; first compound 6.325 µM
  relative viability: 0.411
[8]; first compound 20 µM
  relative viability: 0.142
[11]; first compound 0.2 µM
  relative viability: 0.594
[11]; first compound 0.6325 µM
  relative viability: 0.476
[11]; first compound 2 µM
  relative viability: 0.498
[11]; first compound 6.325 µM
  relative viability: 0.536
[11]; first compound 20 µM
  relative viability: 0.299

## CN1CCN(CCOc2cc(OC3CCOCC3)c3c(Nc4c(Cl)ccc5c4OCO5)ncnc3c2)CC1 [Saracatinib] + N=C(N)NC(=N)NCCc1ccccc1 [Phenformin] (partner 250 µM)
[2]; first compound 0.02 µM
  relative viability: 0.26
[2]; first compound 0.6325 µM
  relative viability: 0.211
[2]; first compound 2 µM
  relative viability: 0.189
[5]; first compound 0.02 µM
  relative viability: 0.564
[5]; first compound 0.2 µM
  relative viability: 0.314
[5]; first compound 0.6325 µM
  relative viability: 0.447
[5]; first compound 2 µM
  relative viability: 0.381
[7]; first compound 0.02 µM
  relative viability: 0.562
[7]; first compound 0.2 µM
  relative viability: 0.566
[7]; first compound 0.6325 µM
  relative viability: 0.642
[7]; first compound 2 µM
  relative viability: 0.588
[8]; first compound 0.02 µM
  relative viability: 0.588
[8]; first compound 0.2 µM
  relative viability: 0.554
[8]; first compound 0.6325 µM
  relative viability: 0.652
[8]; first compound 2 µM
  relative viability: 0.546
[9]; first compound 0.02 µM
  relative viability: 0.161
[9]; first compound 0.2 µM
  relative viability: 0.121
[9]; first compound 0.6325 µM
  relative viability: 0.156
[9]; first compound 2 µM
  relative viability: 0.154
[11]; first compound 0.02 µM
  relative viability: 0.619
[11]; first compound 0.2 µM
  relative viability: 0.53
[11]; first compound 0.6325 µM
  relative viability: 0.297
[11]; first compound 2 µM
  relative viability: 0.395
